Test results reported in patent US6375926B1, “Labelled elastase inhibitors” (Amersham International PLC, priority 1996, dated 2002).

Key:
[1] = system: E. coli infected rats (experimental abscess); experiment: In vivo biodistribution in rats bearing experimental abscesses, direct intravenous injection; design: species or system male Wistar rats; settings: 48 hrs
[2] = system: E. coli infected rats (experimental abscess); experiment: as above; design: species or system male Wistar rats; settings: directly injected i.v., 24 hrs post injection
Procedure: The model: into the right gracilis (thigh) muscle of male Wistar rats (250-325 g) were injected 1 ml/kg of an E. coli suspension containing >> 5×10^8/ml organisms.
Validation: the model was validated for use in the development of diagnostic imaging agents of infection/inflammation by the intravenous injection of ^99mTc-HMPAO ex-vivo labelled human wbc or ^67Ga-citrate when the abscesses were 24 hours old. Animals were dissected between 4 and 24 hours after injection. ^99mTc-labelled red blood cells were used as a negative control.
The animals were sacrificed at either 4 or 24 hours post injection and relevant tissues dissected.

Relative conc. In infected area [1]: 1.1
SMILES: O=C([O-])CC(O)(CC(=O)[O-])C(=O)[O-].[67Ga+3] [^67Ga-citrate, ^67Ga citrate, reference compound]
Infected/blood [1]: 9.7 | Infected/normal [1]: 3.9 | Relative conc. In infected area ([2]; % injected dose in a % body weight): 0.9 | Infected/normal ([2]; ratio of % id/g infected area to contralateral thigh): 2.2 | Infected/blood ([2]; ratio of %/g infected area to blood): 3.9
